Measured values from US9233964B2, “Sulfamide piperazine derivatives as protein tyrosine kinase inhibitors and pharmaceutical use therof” (LEO PHARMA A/S, priority 2011, dated 2016).

Assays:
Format in all cases: biochemical
TYK2 = molecular target: T1, TYK2 (Homo sapiens, UniProt P29597); test: JAK kinase assay (HTRF, phosphorylation of synthetic peptide), TYK2; settings: catalytic domain, ATP at Km (13 μM); read-out: TYK2 kinase inhibitory activity (EC50)
T1 construct: JAK1 (aa 850-1154) and TYK2 (aa 871-1187) are expressed with an N-terminally fused GST-tag; GST (N); purchased Carna Biosciences, Inc; host or cells: baculovirus expression system
T1 sequence (P29597 871-1187): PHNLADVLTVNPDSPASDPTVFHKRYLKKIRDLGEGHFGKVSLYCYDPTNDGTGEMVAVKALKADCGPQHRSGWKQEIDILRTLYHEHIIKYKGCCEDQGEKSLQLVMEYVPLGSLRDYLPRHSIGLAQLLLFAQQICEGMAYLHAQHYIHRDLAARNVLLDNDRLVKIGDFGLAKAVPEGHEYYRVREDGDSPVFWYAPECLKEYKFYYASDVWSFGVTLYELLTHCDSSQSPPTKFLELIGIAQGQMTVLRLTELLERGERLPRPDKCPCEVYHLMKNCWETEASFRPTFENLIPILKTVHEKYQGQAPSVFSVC
In short: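 1 µM biotinylated TK peptide at Km ATP in pH 7.0 Hepes, 20-30 min RT. EDTA stop; overnight streptavidin-XL665/cryptate HTRF read.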

JAK1 = molecular target: T2, JAK1 (Homo sapiens, UniProt P23458); test: JAK kinase assay (HTRF, phosphorylation of synthetic peptide), JAK1; settings: catalytic domain, ATP at Km (7 μM); read-out: JAK1 kinase inhibitory activity (EC50)
T2 construct: JAK1 (aa 850-1154) and TYK2 (aa 871-1187) are expressed with an N-terminally fused GST-tag; GST (N); purchased Carna Biosciences, Inc; host or cells: baculovirus expression system
In short: (§1)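 Catalytic-domain human JAK1 (GST-tagged, aa 850-1154) or His-tagged JAK2, baculovirus-expressed, phosphorylated 1 µM biotinylated TK peptide at Km ATP (JAK1 7 µM, 10 mM MgCl2, 50 nM SEB; JAK2 4 µM, 5 mM MgCl2) in pH 7.0 Hepes, 20-30 min RT. EDTA stop; overnight streptavidin-XL665/cryptate HTRF read.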

JAK2 = molecular target: T3, JAK2 (Homo sapiens, UniProt O60674); test: JAK kinase assay (HTRF, phosphorylation of synthetic peptide), JAK2; settings: catalytic domain, ATP at Km (4 μM); read-out: JAK2 kinase inhibitory activity (EC50)
T3 construct: All four purified enzymes contain only the catalytic domain; His (N); purchased Carna Biosciences, Inc; host or cells: baculovirus expression system
In short: as §1

JAK3 = molecular target: T4, JAK3 (Homo sapiens, UniProt P52333); test: JAK kinase assay (HTRF, phosphorylation of synthetic peptide), JAK3; settings: catalytic domain, ATP at Km (2 μM); read-out: JAK3 kinase inhibitory activity (EC50)
T4 construct: All four purified enzymes contain only the catalytic domain; His (N); purchased Carna Biosciences, Inc; host or cells: baculovirus expression system
T4 sequence (P52333 822-1111 limits assumed): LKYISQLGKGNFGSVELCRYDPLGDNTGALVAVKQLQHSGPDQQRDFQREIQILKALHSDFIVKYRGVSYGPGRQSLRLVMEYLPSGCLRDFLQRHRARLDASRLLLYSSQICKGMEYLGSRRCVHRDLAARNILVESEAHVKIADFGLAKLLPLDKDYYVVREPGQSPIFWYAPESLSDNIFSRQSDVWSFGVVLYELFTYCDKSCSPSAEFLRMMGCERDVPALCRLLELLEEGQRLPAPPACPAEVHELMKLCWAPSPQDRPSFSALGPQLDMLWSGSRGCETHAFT

T2 sequence (P23458 850-1154): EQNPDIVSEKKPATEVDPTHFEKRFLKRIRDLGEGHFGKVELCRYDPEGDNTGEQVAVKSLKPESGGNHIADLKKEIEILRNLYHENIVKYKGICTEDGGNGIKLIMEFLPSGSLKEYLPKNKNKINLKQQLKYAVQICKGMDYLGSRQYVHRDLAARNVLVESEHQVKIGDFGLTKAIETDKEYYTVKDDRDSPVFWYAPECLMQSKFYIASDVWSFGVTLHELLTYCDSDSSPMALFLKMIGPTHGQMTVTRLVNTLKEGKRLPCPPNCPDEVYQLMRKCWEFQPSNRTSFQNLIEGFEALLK
T3 sequence (O60674 849-1124 limits assumed): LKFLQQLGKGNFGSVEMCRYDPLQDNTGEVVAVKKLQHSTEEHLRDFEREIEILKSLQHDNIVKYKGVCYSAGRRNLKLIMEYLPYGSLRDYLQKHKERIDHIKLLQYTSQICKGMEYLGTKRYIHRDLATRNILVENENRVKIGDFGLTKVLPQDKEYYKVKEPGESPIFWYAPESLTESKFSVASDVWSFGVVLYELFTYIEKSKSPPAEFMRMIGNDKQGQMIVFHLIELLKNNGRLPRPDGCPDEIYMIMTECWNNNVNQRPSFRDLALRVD

| Compound | EC50 (TYK2) [nM] | EC50 (JAK1) [nM] | EC50 (JAK2) [nM] | EC50 (JAK3) [nM] |
| --- | --- | --- | --- | --- |
| O=S(=O)(N(CCc1ccccc1)CCc1ccc(F)cc1)N1CCN(c2ncnc3[nH]ccc23)CC12CC2 [Example 47, 7-(7H-Pyrrolo[2,3-d]pyrimidin-4-yl)-4,7-diaza-spiro[2.5]octane-4-sulfonic acid [2-(4-fluoro-phenyl)-ethyl]-phenethyl-amide] | > 500 | 100 to 500 | 100 to 500 | > 500 |
| NS(=O)(=O)N1CCN(c2ncnc3[nH]ccc23)CC12CC2 [Int 1] | 100 to 500 | < 100 | < 100 | < 100 |
| CN(C)S(=O)(=O)c1ccc(CN(C)S(=O)(=O)N2CCN(c3ncnc4[nH]ccc34)CC23CC3)o1 [Example 65, N-[[5-(dimethylsulfamoyl)-2-furyl]methyl]-N-methyl-5-(7H-pyrrolo[2,3-d]pyrimidin-4-yl)-5,8-diazaspiro[2.5]octane-8-sulfonamide] | 100 to 500 | < 100 | < 100 | 100 to 500 |
| CN(CC1CCCS(=O)(=O)C1)S(=O)(=O)N1CCN(c2ncnc3[nH]ccc23)CC12CC2 (centres unmarked) [Example 76, N-[(1,1-dioxothian-3-yl)methyl]-N-methyl-5-(7H-pyrrolo[2,3-d]pyrimidin-4-yl)-5,8-diazaspiro[2.5]octane-8-sulfonamide] | 100 to 500 | < 100 | < 100 | < 100 |
| CCN(C1CCC1)S(=O)(=O)N1CCN(c2ncnc3[nH]ccc23)CC12CC2 [Example 99, N-cyclobutyl-N-ethyl-5-(7H-pyrrolo[2,3-d]pyrimidin-4-yl)-5,8-diazaspiro[2.5]octane-8-sulfonamide] | < 100 | < 100 | < 100 | 100 to 500 |
| CN(CC1CCN(S(C)(=O)=O)C1)S(=O)(=O)N1CCN(c2ncnc3[nH]ccc23)CC12CC2 (centres unmarked) [Example 119, N-methyl-N-[(1-methylsulfonylpyrrolidin-3-yl)methyl]-5-(7H-pyrrolo[2,3-d]pyrimidin-4-yl)-5,8-diazaspiro[2.5]octane-8-sulfonamide] | 100 to 500 | < 100 | < 100 | < 100 |
| CN(C1CN(C(=O)CCO)C1)S(=O)(=O)N1CCN(c2ncnc3[nH]ccc23)CC12CC2 [Example 179, N-[1-(3-hydroxypropanoyl)azetidin-3-yl]-N-methyl-5-(7H-pyrrolo[2,3-d]pyrimidin-4-yl)-5,8-diazaspiro[2.5]octane-8-sulfonamide] | 100 to 500 | < 100 | < 100 | 100 to 500 |
| CN(CCO)S(=O)(=O)N1CCN(c2ncnc3[nH]ccc23)CC12CC2 [Example 109, N-(2-hydroxyethyl)-N-methyl-5-(7H-pyrrolo[2,3-d]pyrimidin-4-yl)-5,8-diazaspiro[2.5]octane-8-sulfonamide] | 100 to 500 | < 100 | < 100 | 100 to 500 |
| CN(C(=O)CCC1CCCC1)S(=O)(=O)N1CCN(c2ncnc3[nH]ccc23)CC12CC2 [Example 134, 3-cyclopentyl-N-methyl-N-[[5-(7H-pyrrolo[2,3-d]pyrimidin-4-yl)-5,8-diazaspiro[2.5]octan-8-yl]sulfonyl]propanamide] | > 500 | < 100 | 100 to 500 | > 500 |
| CN(C[C@@H]1CCCN1S(C)(=O)=O)S(=O)(=O)N1CCN(c2ncnc3[nH]ccc23)CC12CC2 [Example 194, N-methyl-N-[[(2S)-1-methylsulfonylpyrrolidin-2-yl]methyl]-5-(7H-pyrrolo[2,3-d]pyrimidin-4-yl)-5,8-diazaspiro[2.5]octane-8-sulfonamide] | 100 to 500 | < 100 | < 100 | < 100 |
| CN(Cc1ccccn1)S(=O)(=O)N1CCN(c2ncnc3[nH]ccc23)CC12CC2 [Example 28, 7-(7H-Pyrrolo[2,3-d]pyrimidin-4-yl)-4,7-diaza-spiro[2.5]octane-4-sulfonic acid methyl-pyridin-2-ylmethyl-amide] | 100 to 500 | < 100 | < 100 | 100 to 500 |
